# Measured values taken from article PMC7083880 (Nature Communications, 2020).
# Legend:
# Format in all cases: cell-based, human
# [1] = tested on: p53 readthrough protein in Calu-6 cells; experiment: p53 function: luciferase under promoter with two p53-responsive elements, Calu-6
# From the text: (§1) The three leftmost lanes show twofold serial dilutions of untreated HeLa cell extract. The molecular weight is indicated to the left of each gel. b Schematic representation of the construct used to measure the function of p53. The construct carries a cDNA encoding the firefly luciferase under a promoter having two p53-responsive elements (underlined). […] The level of p21 mRNA is related to the amount of functional p53 protein synthesized in the cell. The results presented in panels b and c are representative of at least two independent experiments., p-values (p) were calculated using Student’s t-test. Source data are provided as a Source Data file.
# (§2) Although DAP clearly promoted the synthesis of full-length proteins from UGA-nonsense-mutation-containing mRNAs, it was necessary to ascertain that the readthrough protein was functional. […] The first involved measuring the transcriptional activity of the p53 readthrough protein in Calu-6 cells transfected with an expression vector carrying the cDNA encoding firefly luciferase under the control of a promoter with two p53-responsive elements (Fig. 2b)[33]. Upon DMSO treatment, only basal luciferase activity was detected, reflecting promoter leakage (Fig. 2c). […] The second assay used the p53 target gene p21 (ref. [44]).
# [2] = tested on: firefly luciferase construct with UGA PTC in HeLa cells; experiment: UGA readthrough luciferase assay with empty expression vector (E.v.) control;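 as to luciferase activity, average: DAP exposure for 24 h before luciferase measurement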;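 as to luciferase activity, exp2: DAP exposure for 24 h before luciferase measurement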
# From the text: Firefly luciferase from HEK293FT cells transfected with the Fluc-int-UGA construct was immunoprecipitated and digested with trypsin. The MS/MS spectrum of the peptide containing the PTC position and the sequence determination are shown. The upper red and blue sequences indicate the amino acids validated, respectively, by detection of Nter and Cter peptide fragments (b and y ion series). Peptide fragments y6 and y7 clearly identify tryptophan (W) at the PTC position. The black peaks correspond to non-attributed mass-to-charge ratio (m/z) values. […] Readthrough efficiency was determined by measuring luciferase activity in HeLa cells co-transfected with the firefly luciferase construct described in Fig. 1b and with increasing amounts of an expression vector for either FTSJ1 or CTU1 (0.5, 1, or 2 µg). The empty expression vector (E.v.) was used as control. […] The experiment was performed twice and the results of both experiments (Exp1 and Exp2) are shown. c Western blot analysis of FTSJ1 and CTU1. d 2′-O-methylation analysis of tRNA^Trp, tRNA^SER, and tRNA^GLN by RiboMethSeq. […] A molecular weight marker is indicated to the left of each gel. p-values (p) were calculated using Student’s t-test. Source data are provided as a Source Data file.
# Among the enzymes modifying tRNAs liable to recognize a stop codon by extended wobbling, human FTSJ1 (TRM7 in yeast) exclusively modifies tRNAs involved in UGA readthrough. In addition to other tRNA targets, FTSJ1 methylates the cytosine at position 34 of tRNA^Trp. Inhibition of this modification could increase the capacity of tRNA^Trp to misdecode and recognize the UGA stop codon. […] FTSJ1 and CTU1 overexpression were assessed by western-blot analysis (Fig. 5c).
# [3] = tested on: wild-type TP53 in HeLa cells; experiment: p53 function: luciferase under promoter with two p53-responsive elements, HeLa
# [4] = tested on: p53 target gene p21 in Calu-6 cells; experiment: p21 mRNA level by quantitative RT-PCR, Calu-6
# From the text: as §1, §2
# RNA was purified using RNazol (MRC) according to the manufacturer’s instructions. 1/5 of the RNA preparation was used for reverse-transcription (RT) PCR (RT-PCR) using Superscript II (Life Technologies) for 2 h at 42 °C in the presence of random hexamers. The resulting cDNAs were PCR amplified in the presence of dCTP(α^33P) (Perkin Elmer) with the following primers: GAPDH mRNA (sense: 5′-[…]-3′; antisense: 5′-[…]-3′), p53 mRNA (sense: 5′-[…]-3′; antisense: 5′-[…]-3′), p21 mRNA (sense: 5′-[…]-3′; antisense: 5′-[…]-3′). PCR products were quantified with Personal Molecular Imager and QuantityOne quantification software (Bio-Rad).
smiles,measurement,setting,value
"Nc1nc(N)c2[nH]cnc2n1 [DAP, 2,6-diaminopurine]","Luciferase activity under p53-responsive promoter, in words",[1],significantly increased
same,"Luciferase activity, p53-responsive promoter construct (DMSO = 1)","[1]; 6.25µM, average",1.454
same,"Luciferase activity, p53-responsive promoter construct (DMSO = 1)","[1]; 6.25µM, experiment 1",1.606
same,"Luciferase activity, p53-responsive promoter construct (DMSO = 1)","[1]; 6.25µM, experiment 2",1.415
same,"Luciferase activity, p53-responsive promoter construct (DMSO = 1)","[1]; 6.25µM, experiment 3",1.341
same,"Luciferase activity, p53-responsive promoter construct (DMSO = 1)","[1]; 25µM, average",2.545
same,"Luciferase activity, p53-responsive promoter construct (DMSO = 1)","[1]; 25µM, experiment 1",2.235
same,"Luciferase activity, p53-responsive promoter construct (DMSO = 1)","[1]; 25µM, experiment 2",2.893
same,"Luciferase activity, p53-responsive promoter construct (DMSO = 1)","[1]; 25µM, experiment 3",2.507
same,"luciferase activity, average",[2]; 0.39µM,1690.75
same,"luciferase activity, exp1",[2]; 0.39µM,838
same,"luciferase activity, exp1*1,5",[2]; 0.39µM,1257
same,"luciferase activity, exp2",[2]; 0.39µM,2124.5
same,"luciferase activity, average",[2]; 0.78µM,2398.5
same,"luciferase activity, exp1",[2]; 0.78µM,1130
same,"luciferase activity, exp1*1,5",[2]; 0.78µM,1695
same,"luciferase activity, exp2",[2]; 0.78µM,3102
same,"luciferase activity, average",[2]; 1.56µM,4502.75
same,"luciferase activity, exp1",[2]; 1.56µM,2583
same,"luciferase activity, exp1*1,5",[2]; 1.56µM,3874.5
same,"luciferase activity, exp2",[2]; 1.56µM,5131
same,"luciferase activity, average",[2]; 6.25µM,33564.1
same,"luciferase activity, exp1",[2]; 6.25µM,10235.5
same,"luciferase activity, exp1*1,5",[2]; 6.25µM,15353.2
same,"luciferase activity, exp2",[2]; 6.25µM,51775
same,"luciferase activity, average",[2]; 25µM,96238.8
same,"luciferase activity, exp1",[2]; 25µM,36932
same,"luciferase activity, exp1*1,5",[2]; 25µM,55398
same,"luciferase activity, exp2",[2]; 25µM,137080
same,"luciferase activity, average",[2]; 100µM,228679
same,"luciferase activity, exp1",[2]; 100µM,118458
same,"luciferase activity, exp1*1,5",[2]; 100µM,177688
same,"luciferase activity, exp2",[2]; 100µM,279670
same,"luciferase activity, average",[2]; 300µM,215676
same,"luciferase activity, exp1",[2]; 300µM,106186
same,"luciferase activity, exp1*1,5",[2]; 300µM,159278
same,"luciferase activity, exp2",[2]; 300µM,272074
same,"luciferase activity, average",[2]; 600µM,184925
same,"luciferase activity, exp1",[2]; 600µM,75195.5
same,"luciferase activity, exp1*1,5",[2]; 600µM,112793
same,"luciferase activity, exp2",[2]; 600µM,257056
same,"Luciferase activity, p53-responsive promoter construct (DMSO = 1)","[3]; 6.25µM, FL922",0.8852
same,"Luciferase activity, p53-responsive promoter construct (DMSO = 1)","[3]; 6.25µM, FL932",0.9803
same,"Luciferase activity, p53-responsive promoter construct (DMSO = 1)","[3]; 6.25µM, FL934",0.8382
same,"Luciferase activity, p53-responsive promoter construct (DMSO = 1)","[3]; 6.25µM, average",0.9012
same,"Luciferase activity, p53-responsive promoter construct (DMSO = 1)","[3]; 25µM, FL922",0.7844
same,"Luciferase activity, p53-responsive promoter construct (DMSO = 1)","[3]; 25µM, FL932",0.8921
same,"Luciferase activity, p53-responsive promoter construct (DMSO = 1)","[3]; 25µM, FL934",1.092
same,"Luciferase activity, p53-responsive promoter construct (DMSO = 1)","[3]; 25µM, average",0.9228
same,"Luciferase activity under p53-responsive promoter, in words",[3]; wild-type TP53,failure of DAP to cause a luciferase activity increase
same,"Level of endogenous p21 mRNA, in words",[4],increase significantly
same,Level of p21 mRNA (DMSO = 1),"[4]; 6.25µM, average",1.751
same,Level of p21 mRNA (DMSO = 1),"[4]; 6.25µM, experiment 1",2.112
same,Level of p21 mRNA (DMSO = 1),"[4]; 6.25µM, experiment 2",1.8
same,Level of p21 mRNA (DMSO = 1),"[4]; 25µM, average",2.148
same,Level of p21 mRNA (DMSO = 1),"[4]; 25µM, experiment 1",1.8674
same,Level of p21 mRNA (DMSO = 1),"[4]; 25µM, experiment 2",2.071
same,Level of p21 mRNA (DMSO = 1),"[4]; 25µM, experiment 3",2.507
"CN[C@@H]1[C@@H](O)[C@@H](O[C@@H]2[C@@H](O)[C@H](O[C@H]3O[C@H]([C@@H](C)O)[C@@H](O)[C@H](O)[C@H]3N)[C@@H](N)C[C@H]2N)OC[C@]1(C)O [G418, reference compound]","Luciferase activity under p53-responsive promoter, in words",[1],remained at its background level
same,"Luciferase activity, p53-responsive promoter construct (DMSO = 1)","[1]; 25µM, average",1.04
same,"Luciferase activity, p53-responsive promoter construct (DMSO = 1)","[1]; 25µM, experiment 1",1.048
same,"Luciferase activity, p53-responsive promoter construct (DMSO = 1)","[1]; 25µM, experiment 2",0.7766
same,"Luciferase activity, p53-responsive promoter construct (DMSO = 1)","[1]; 25µM, experiment 3",1.295
same,"Luciferase activity, p53-responsive promoter construct (DMSO = 1)","[1]; 600µM, average",1.017
same,"Luciferase activity, p53-responsive promoter construct (DMSO = 1)","[1]; 600µM, experiment 1",1.299
same,"Luciferase activity, p53-responsive promoter construct (DMSO = 1)","[1]; 600µM, experiment 2",0.6289
same,"Luciferase activity, p53-responsive promoter construct (DMSO = 1)","[1]; 600µM, experiment 3",1.121
same,"luciferase activity, average",[2]; 25µM,5230.12
same,"luciferase activity, exp1",[2]; 25µM,3250.5
same,"luciferase activity, exp1*1,5",[2]; 25µM,4875.75
same,"luciferase activity, exp2",[2]; 25µM,5584.5
same,"luciferase activity, average",[2]; 600µM,9792.88
same,"luciferase activity, exp1",[2]; 600µM,6265.5
same,"luciferase activity, exp1*1,5",[2]; 600µM,9398.25
same,"luciferase activity, exp2",[2]; 600µM,10187.5
same,"Luciferase activity, p53-responsive promoter construct (DMSO = 1)","[3]; 25µM, FL922",0.9453
same,"Luciferase activity, p53-responsive promoter construct (DMSO = 1)","[3]; 25µM, FL932",0.904
same,"Luciferase activity, p53-responsive promoter construct (DMSO = 1)","[3]; 25µM, FL934",1.071
same,"Luciferase activity, p53-responsive promoter construct (DMSO = 1)","[3]; 25µM, average",0.9735
same,"Luciferase activity, p53-responsive promoter construct (DMSO = 1)","[3]; 600µM, FL922",0.9542
same,"Luciferase activity, p53-responsive promoter construct (DMSO = 1)","[3]; 600µM, FL932",0.6225
same,"Luciferase activity, p53-responsive promoter construct (DMSO = 1)","[3]; 600µM, FL934",1.017
same,"Luciferase activity, p53-responsive promoter construct (DMSO = 1)","[3]; 600µM, average",0.8645
same,Level of p21 mRNA (DMSO = 1),"[4]; 25µM, average",1.18
same,Level of p21 mRNA (DMSO = 1),"[4]; 25µM, experiment 1",1.069
same,Level of p21 mRNA (DMSO = 1),"[4]; 25µM, experiment 2",1.178
same,Level of p21 mRNA (DMSO = 1),"[4]; 25µM, experiment 3",1.295
same,Level of p21 mRNA (DMSO = 1),"[4]; 600µM, average",1.145
same,Level of p21 mRNA (DMSO = 1),"[4]; 600µM, experiment 1",0.7456
same,Level of p21 mRNA (DMSO = 1),"[4]; 600µM, experiment 2",1.569
same,Level of p21 mRNA (DMSO = 1),"[4]; 600µM, experiment 3",1.121
